Laboratory results as given in the supplement of paper PMC10307832.

Assays:
Assay in all cases: relative viability (nuclei count vs DMSO), 5 days (fraction); higher = more cells survive
A-427 = test system: A-427
In short: (§1)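 Values are medians from duplicate plates. Each reflects relative viability, defined as the nuclei count of treated wells over that of vehicle wells. Lung cancer cell lines in 1536-well plates were pin-tool dosed one day after seeding with one drug alone or with a fixed anchor-drug dose plus five library-drug doses (not always all listed) in √10 steps, then fixed, stained and imaged at 4× after 5 days.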

ABC-1 = test system: ABC-1
In short: as §1

COR-L23 = test system: COR-L23
In short: as §1

EMC-BAC-2 = test system: EMC-BAC-2
In short: as §1

HARA = test system: HARA
In short: as §1

HOP-62 = test system: HOP-62
In short: as §1

LK-2 = test system: LK-2
In short: as §1

LXF-289 = test system: LXF-289
In short: as §1

NCI-H1792 = test system: NCI-H1792
In short: as §1

NCI-H1793 = test system: NCI-H1793
In short: as §1

NCI-H1944 = test system: NCI-H1944
In short: as §1

NCI-H1993 = test system: NCI-H1993
In short: as §1

NCI-H2009 = test system: NCI-H2009
In short: as §1

NCI-H2170 = test system: NCI-H2170
In short: as §1

NCI-H2228 = test system: NCI-H2228
In short: as §1

NCI-H3122 = test system: NCI-H3122
In short: as §1

NCI-H596 = test system: NCI-H596
In short: as §1

NCI-H727 = test system: NCI-H727
In short: as §1

PC-3 [JPC-3] = test system: PC-3 [JPC-3]
In short: as §1

SK-LU-1 = test system: SK-LU-1
In short: as §1

SK-MES-1 = test system: SK-MES-1
In short: as §1

SW 1573 = test system: SW 1573
In short: as §1

O=C(O)c1ccc(-c2c[nH]c3ncc(-c4ccccc4)cc23)cc1C1CCCC1 + CS(=O)(=O)CCNCc1ccc(-c2ccc3ncnc(Nc4ccc(OCc5cccc(F)c5)c(Cl)c4)c3c2)o1 [Lapatinib] (partner 2 µM)
relative viability (A-427; first compound 0.04 µM): 0.965
relative viability (A-427; first compound 0.1265 µM): 1.06
relative viability (A-427; first compound 0.4 µM): 0.986
relative viability (A-427; first compound 1.265 µM): 0.935
relative viability (ABC-1; first compound 0.04 µM): 1.05
relative viability (ABC-1; first compound 0.1265 µM): 1.08
relative viability (ABC-1; first compound 0.4 µM): 1.09
relative viability (ABC-1; first compound 1.265 µM): 1.52
relative viability (COR-L23; first compound 0.04 µM): 0.89
relative viability (COR-L23; first compound 0.1265 µM): 1.09
relative viability (COR-L23; first compound 0.4 µM): 1.01
relative viability (COR-L23; first compound 1.265 µM): 0.654
relative viability (EMC-BAC-2; first compound 0.04 µM): 0.848
relative viability (EMC-BAC-2; first compound 0.1265 µM): 1.03
relative viability (EMC-BAC-2; first compound 0.4 µM): 0.916
relative viability (EMC-BAC-2; first compound 1.265 µM): 0.946
relative viability (HARA; first compound 0.04 µM): 0.578
relative viability (HARA; first compound 0.1265 µM): 0.925
relative viability (HARA; first compound 0.4 µM): 0.802
relative viability (HARA; first compound 1.265 µM): 0.716
relative viability (HOP-62; first compound 0.04 µM): 1.23
relative viability (HOP-62; first compound 0.1265 µM): 0.993
relative viability (HOP-62; first compound 0.4 µM): 1.1
relative viability (HOP-62; first compound 1.265 µM): 0.897
relative viability (LK-2; first compound 0.04 µM): 0.968
relative viability (LK-2; first compound 0.1265 µM): 0.902
relative viability (LK-2; first compound 0.4 µM): 0.744
relative viability (LK-2; first compound 1.265 µM): 0.934
relative viability (LXF-289; first compound 0.04 µM): 0.96
relative viability (LXF-289; first compound 0.1265 µM): 0.936
relative viability (LXF-289; first compound 0.4 µM): 0.822
relative viability (LXF-289; first compound 1.265 µM): 0.619
relative viability (NCI-H1792; first compound 0.04 µM): 0.77
relative viability (NCI-H1792; first compound 0.1265 µM): 0.942
relative viability (NCI-H1792; first compound 0.4 µM): 0.953
relative viability (NCI-H1792; first compound 1.265 µM): 0.847
relative viability (NCI-H1793; first compound 0.04 µM): 0.897
relative viability (NCI-H1793; first compound 0.1265 µM): 1.34
relative viability (NCI-H1793; first compound 0.4 µM): 0.969
relative viability (NCI-H1793; first compound 1.265 µM): 0.71
relative viability (NCI-H1944; first compound 0.04 µM): 0.695
relative viability (NCI-H1944; first compound 0.1265 µM): 1
relative viability (NCI-H1944; first compound 0.4 µM): 0.623
relative viability (NCI-H1944; first compound 1.265 µM): 0.736
relative viability (NCI-H1993; first compound 0.04 µM): 0.927
relative viability (NCI-H1993; first compound 0.4 µM): 0.789
relative viability (NCI-H1993; first compound 1.265 µM): 0.835
relative viability (NCI-H2009; first compound 0.04 µM): 1.06
relative viability (NCI-H2009; first compound 0.1265 µM): 0.922
relative viability (NCI-H2009; first compound 0.4 µM): 0.882
relative viability (NCI-H2009; first compound 1.265 µM): 0.848
relative viability (NCI-H2170; first compound 0.04 µM): 0.26
relative viability (NCI-H2170; first compound 0.1265 µM): 0.324
relative viability (NCI-H2170; first compound 0.4 µM): 0.262
relative viability (NCI-H2170; first compound 1.265 µM): 0.28
relative viability (NCI-H2228; first compound 0.04 µM): 1.17
relative viability (NCI-H2228; first compound 0.1265 µM): 1.41
relative viability (NCI-H2228; first compound 0.4 µM): 1.2
relative viability (NCI-H2228; first compound 1.265 µM): 0.362
relative viability (NCI-H3122; first compound 0.04 µM): 1.02
relative viability (NCI-H3122; first compound 0.1265 µM): 1.01
relative viability (NCI-H3122; first compound 0.4 µM): 0.974
relative viability (NCI-H3122; first compound 1.265 µM): 0.857
relative viability (NCI-H596; first compound 0.04 µM): 1.1
relative viability (NCI-H596; first compound 0.1265 µM): 1.02
relative viability (NCI-H596; first compound 0.4 µM): 0.979
relative viability (NCI-H596; first compound 1.265 µM): 1.03
relative viability (NCI-H727; first compound 0.04 µM): 0.955
relative viability (NCI-H727; first compound 0.1265 µM): 1
relative viability (NCI-H727; first compound 0.4 µM): 0.876
relative viability (NCI-H727; first compound 1.265 µM): 1.16
relative viability (PC-3 [JPC-3]; first compound 0.04 µM): 0.51
relative viability (PC-3 [JPC-3]; first compound 0.1265 µM): 0.489
relative viability (PC-3 [JPC-3]; first compound 0.4 µM): 0.466
relative viability (PC-3 [JPC-3]; first compound 1.265 µM): 0.459
relative viability (SK-LU-1; first compound 0.04 µM): 0.874
relative viability (SK-LU-1; first compound 0.1265 µM): 0.831
relative viability (SK-LU-1; first compound 0.4 µM): 0.771
relative viability (SK-LU-1; first compound 1.265 µM): 0.488
relative viability (SK-MES-1; first compound 0.04 µM): 0.443
relative viability (SK-MES-1; first compound 0.1265 µM): 0.495
relative viability (SK-MES-1; first compound 0.4 µM): 0.464
relative viability (SK-MES-1; first compound 1.265 µM): 0.412
relative viability (SW 1573; first compound 0.04 µM): 1.15
relative viability (SW 1573; first compound 0.1265 µM): 1.39
relative viability (SW 1573; first compound 0.4 µM): 1.14
relative viability (SW 1573; first compound 1.265 µM): 1.09
